Earlier results as cited in US20050255458A1, “Drug discovery assays based on the biology of chronic disease” (priority 2002, published 2005).
“And” between values parts separate entries of the source, which are not always exact repeats. Equal values may be shown once. Read-outs that look alike come from different tables or passages of the source.

Key:
Conditions in all cases: cited from earlier work
monocytes on VCAM-1 = test system: monocytes on VCAM-1
VCAM-1 = test system: VCAM-1
AR = AR (Homo sapiens, UniProt P10275)
Sequence of AR (P10275 whole entry): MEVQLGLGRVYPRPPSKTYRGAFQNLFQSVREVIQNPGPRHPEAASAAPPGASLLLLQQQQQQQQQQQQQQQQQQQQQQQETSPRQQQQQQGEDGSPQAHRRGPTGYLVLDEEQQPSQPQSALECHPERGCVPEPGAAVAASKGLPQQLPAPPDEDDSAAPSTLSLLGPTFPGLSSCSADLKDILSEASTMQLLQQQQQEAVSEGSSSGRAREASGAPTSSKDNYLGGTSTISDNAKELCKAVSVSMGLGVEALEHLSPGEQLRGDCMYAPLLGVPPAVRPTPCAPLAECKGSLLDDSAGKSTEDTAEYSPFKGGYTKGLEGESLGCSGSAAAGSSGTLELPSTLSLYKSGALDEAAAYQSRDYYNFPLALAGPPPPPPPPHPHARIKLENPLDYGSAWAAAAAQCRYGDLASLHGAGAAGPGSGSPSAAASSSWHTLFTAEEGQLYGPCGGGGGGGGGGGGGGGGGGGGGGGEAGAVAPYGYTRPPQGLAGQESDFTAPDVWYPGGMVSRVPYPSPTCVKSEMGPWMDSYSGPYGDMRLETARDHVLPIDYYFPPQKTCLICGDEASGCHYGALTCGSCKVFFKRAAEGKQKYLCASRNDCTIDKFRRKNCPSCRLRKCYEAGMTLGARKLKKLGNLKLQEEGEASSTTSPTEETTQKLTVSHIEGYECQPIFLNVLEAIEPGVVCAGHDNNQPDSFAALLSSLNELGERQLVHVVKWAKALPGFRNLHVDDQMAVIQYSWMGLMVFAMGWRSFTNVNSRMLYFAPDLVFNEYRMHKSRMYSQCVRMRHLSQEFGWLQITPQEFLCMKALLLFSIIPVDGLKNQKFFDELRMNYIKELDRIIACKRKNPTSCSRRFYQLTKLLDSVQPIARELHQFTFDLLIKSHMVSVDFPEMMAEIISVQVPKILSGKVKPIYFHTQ

MCP-1: a chemokine
Average velocity (monocytes on VCAM-1): 2.43 ± 1.36 μm/min | average percent of monocyte remaining bound (VCAM-1; 8.5 dyn/cm^2, 0-6.99 minutes of stimulation, 1 ng/ml): 51% | average percent of monocyte remaining bound (VCAM-1; 8.5 dyn/cm^2, 7.0-13.99 minutes): 67% | average percent of monocyte remaining bound (VCAM-1; 8.5 dyn/cm^2, 14.0-30.0 minutes): 31% | average percent of monocyte remaining bound (VCAM-1; 36 dyn/cm^2, 0-6.99 minutes): 36% | average percent of monocyte remaining bound (VCAM-1; 36 dyn/cm^2, 14.0-30.0 minutes): 16%

[^3H]methyltrienolone [[3H]methyltrienolone (R1881)]
Bmax (AR): 30.1 ± 4.3 fmol/mg protein and 26.8 ± 3.0 fmol/mg protein and 18.7 ± 4.4 fmol/mg protein
